The record followed here is US7320979B2, “N-[(piperazinyl)hetaryl]arylsulfonamide compounds” (Abbott GmbH & Co. KG., priority 2003, dated 2008).

Experiment [1] concerns the target T1, human dopamine D3 receptors (Homo sapiens, UniProt P35462).
T1 construct: expressed in transfected cells; host or cells: HEK-293
As to the kind of experiment: Dopamine D3 receptor binding, displacement of [125I]-iodosulpride. As to conditions: membranes of HEK-293 cells stably expressing human D3 receptors; 0.1 nM [125I]-iodosulpride; 25° C., 60 minutes. On the procedure: (§1) The substance to be tested was either dissolved in methanol/Chremophor® (BASF-AG) or in dimethyl sulfoxide and then diluted with water to the desired concentration.
(§2) Each assay mixture was run in triplicate.
The incubation buffer contained 50 mM tris, 120 mM NaCl, 5 mM KCl, 2 mM CaCl2, 2 mM MgCl2 and 0.1% bovine serum albumin, 10 μM […] and 0.1% ascorbic acid (prepared fresh daily). The buffer was adjusted to pH 7.4 with HCl.
(§3) After having been incubated at 25° C. for 60 minutes, the assay mixtures were filtered through a Whatman GF/B glass fiber filter under vacuum using a cell collecting device. The filters were transferred to scintillation viols using a filter transfer system. After 4 ml of Ultima Gold® (Packard) have been added, the samples were shaken for one hour and the radioactivity was then counted in a Beta-Counter (Packard, Tricarb 2000 or 2200CA). The cpm values were converted into dpm using a standard quench series and the program belonging to the instrument.
(§4) The inhibition curves were analyzed by means of iterative nonlinear regression analysis using the Statistical Analysis System (SAS) which is similar to the “LIGAND” program described by Munson and Rodbard.
(Loss of bound radioactivity is the signal in a displacement assay; it reports binding, not function.)

The target of experiment [2] is T2, human dopamine D2L receptors (long isoform) (Homo sapiens, UniProt P14416).
T2 construct: expressed in transfected cells; host or cells: HEK-293
As to the kind of experiment: Dopamine D2L receptor binding, displacement of [125I] iodospiperone. The following applies: footnote: ratio of the Ki values of the D3 and D2L binding tests. On the procedure:
as §1, §2
The incubation buffer contained 50 mM tris, 120 mM NaCl, 5 mM KCl, 2 mM CaCl2, 2 mM MgCl2 and 0.1% bovine serum albumin. The buffer was adjusted to pH 7.4 with HCl.
as §3, §4

Counter-ions that a name gives are not always drawn.

T2 sequence (P14416 whole entry, canonical isoform): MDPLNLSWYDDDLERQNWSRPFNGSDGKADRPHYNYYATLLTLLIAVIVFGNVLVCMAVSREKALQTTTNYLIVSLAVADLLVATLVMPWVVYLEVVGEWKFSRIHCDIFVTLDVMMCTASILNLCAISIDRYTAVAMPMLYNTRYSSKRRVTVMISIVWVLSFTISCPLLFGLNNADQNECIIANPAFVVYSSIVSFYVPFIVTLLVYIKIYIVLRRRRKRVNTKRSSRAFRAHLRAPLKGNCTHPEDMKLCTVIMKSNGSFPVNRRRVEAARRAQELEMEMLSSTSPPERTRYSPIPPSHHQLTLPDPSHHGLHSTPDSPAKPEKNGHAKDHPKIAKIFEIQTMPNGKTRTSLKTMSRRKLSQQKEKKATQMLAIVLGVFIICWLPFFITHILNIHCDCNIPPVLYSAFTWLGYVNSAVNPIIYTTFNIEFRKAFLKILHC
T1 sequence (P35462 whole entry): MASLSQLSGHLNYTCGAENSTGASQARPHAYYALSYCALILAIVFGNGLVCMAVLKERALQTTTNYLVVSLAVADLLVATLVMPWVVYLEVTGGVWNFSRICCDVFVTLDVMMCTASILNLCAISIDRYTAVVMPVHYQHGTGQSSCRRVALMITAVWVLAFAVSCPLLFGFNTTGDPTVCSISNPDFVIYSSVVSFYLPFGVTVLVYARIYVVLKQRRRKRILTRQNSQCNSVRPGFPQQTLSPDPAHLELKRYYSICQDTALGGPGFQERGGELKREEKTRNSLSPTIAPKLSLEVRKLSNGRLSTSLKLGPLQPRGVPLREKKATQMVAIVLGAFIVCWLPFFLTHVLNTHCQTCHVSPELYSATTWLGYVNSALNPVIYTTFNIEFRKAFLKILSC

The Ki is the dissociation constant of the complex between target and ligand, obtained from inhibition or displacement. Read a low Ki as higher affinity. The molecule `CCCN1CCN(c2ncc(NS(=O)(=O)c3ccc(CC)cc3)cn2)C[C@@H]1C.Cl` [Example 57, 4-Ethyl-N-[2-((S)-3-methyl-4-propyl-piperazin-1-yl)-pyrimidin-5-yl]-benzenesulfonamide, hydrochloride] returned a Ki in experiment [1] of 7.3 nM. In addition, in experiment [2], the “Selectivity vs. D2L” value came out at 234.
For `C=CCN1CCN(c2ncc(NS(=O)(=O)c3ccc(C(C)C)cc3)cn2)C[C@@H]1C.Cl` [Example 55, N-[2-((S)-4-Allyl-3-methyl-piperazin-1-yl)-pyrimidin-5-yl]-4-isopropyl-benzenesulfonamide, hydrochloride], the affinity in experiment [1] corresponds to a Ki of 2.9 nM. Also, the “Selectivity vs. D2L” value in experiment [2] turned out to be 159.
On to `CCCN1CCN(c2ccc(NS(=O)(=O)c3ccc(C(C)C)cc3)cn2)C[C@@H]1C` [Example 14a, 4-Isopropyl-N-{6-[(3S)-methyl-4-propylpiperazin-1-yl]pyridin-3-yl}benzenesulfonamide], for which affinity in experiment [1] was put at a Ki of 1.5 nM. In addition, in experiment [2], the “Selectivity vs. D2L” value came out at 184.
The corresponding values for `C=Cc1ccc(S(=O)(=O)Nc2ccc(N3CCN(CCC)[C@@H](C)C3)nc2)cc1.Cl` [Example 47, N-[6-((S)-3-methyl-4-propyl-piperazin-1-yl)-pyridin-3-yl]-4-vinylbenzenesulfonamide, hydrochloride] are 6.1 nM and 118.
The like results for `CCCN1CCN(c2ccc(NS(=O)(=O)c3ccc(C(C)C)cc3)cn2)C[C@@H]1CC.Cl` [Example 51, N-[6-((S)-3-Ethyl-4-propyl-piperazin-1-yl)-pyridin-3-yl]-4-isopropylbenzenesulfonamide, hydrochloride] were, in that order, 3.1 nM and 101.
`C=CCN1CCN(c2ccc(NS(=O)(=O)c3ccc(C(C)(C)C)cc3)c(C)n2)CC1` [Example 44, 4-tert-Butyl-[N-[2-(4-allylpiperazin-1-yl)-6-methylpyridin-5-yl]-benzenesulfonamide, fumarate] had a Ki in experiment [1] of 1.4 nM. In experiment [2], the “Selectivity vs. D2L” value was 41.
`CCCN1CCN(c2ccc(NS(=O)(=O)c3ccc(Br)cc3)cn2)CC1` [Example 27, 4-Bromo-N-[6-(4-propylpiperazin-1-yl)pyridin-3-yl]-benzenesulfonamide] came in with a Ki in experiment [1] of 21.4 nM. In experiment [2], the “Selectivity vs. D2L” value stood at 55.
The like results for `CCCN1CCN(c2ccc(NS(=O)(=O)c3ccc(C(C)C)cc3)cn2)CC1C.Cl` (racemic) [Example 14, 4-Isopropyl-N-[6-(3-methyl-4-propylpiperazin-1-yl)pyridin-3-yl]benzenesulfonamide hydrochloride] were, in that order, 2.5 nM and 81.
The corresponding values for `C=CCN1CCN(c2ccc(NS(=O)(=O)c3ccc(CCC)cc3)cn2)CC1` [Example 2, N-[6-(4-Allylpiperazin-1-yl)pyridin-3-yl]-4-propylbenzenesulfonamide] are 5.5 nM and 25.
The like results for “N-[2-(4-Allylpiperazin-1-yl)pyridin-5-yl]-4-(N-pyrrolidinyl)benzenesulfonamide fumarate [Example 42]” were, in that order, 5.3 nM and 33.
`C=Cc1ccc(S(=O)(=O)Nc2cnc(N3CCN(CCC)[C@@H](C)C3)nc2)cc1.Cl` [Example 58, N-[2-((S)-3-Methyl-4-propyl-piperazin-1-yl)-pyrimidin-5-yl]-4-vinylbenzenesulfonamide, hydrochloride] showed a Ki in experiment [1] of 6.2 nM. Further, the “Selectivity vs. D2L” value in experiment [2] was 254.
Molecule `CCCN1CC2CC1CN2c1ccc(NS(=O)(=O)c2ccc(C(C)C)cc2)cn1.Cl` (stereo not shown) [Example 29, 4-Isopropyl-N-[6-(5-propyl-2,5-diazabicyclo[2.2.1]hept-2-yl)pyridin-3-yl]-benzenesulfonamide hydrochloride] displayed a Ki in experiment [1] of 16.9 nM. In experiment [2], the “Selectivity vs. D2L” value was found to be 31.
The like results for `C=CCN1CCN(c2ccc(OS(=O)(=O)c3ccc(C(C)C)cc3)cn2)CC1` [Example 59, 4-Isopropyl-benzenesulfonic acid 6-(4-allyl-piperazin-1-yl)-pyridin-3-yl ester] were, in that order, 16.2 nM and 75.
The corresponding values for `C=CCN1CCN(c2ccc(NS(=O)(=O)c3ccc(Cl)cc3)cn2)CC1.Cl` [Example 35, N-[6-(4-Allylpiperazin-1-yl)pyridin-3-yl]-4-chlorobenzenesulfonamide hydrochloride] are 26.6 nM and 51.
Regarding `CCCN1CCN(c2ncc(NS(=O)(=O)c3ccc(C(C)C)cc3)cn2)CC1.Cl` [Example 17, 4-Isopropyl-N-[2-(4-propylpiperazin-1-yl)pyrimidin-5-yl]benzenesulfonamide hydrochloride], in experiment [1], affinity was put at a Ki of 8.2 nM. For the same molecule, the “Selectivity vs. D2L” value in experiment [2] stood at 148.
The corresponding values for `C=Cc1ccc(S(=O)(=O)Nc2ccc(N3CCN(CCC)CC3)nc2)cc1.Cl` [Example 31, N-[6-(4-Propylpiperazin-1-yl)pyridin-3-yl]-4-vinylbenzenesulfonamide hydrochloride] are 14 nM and 96.
The corresponding values for `C=CCN1C(C)CN(c2ccc(NS(=O)(=O)c3ccc(C(C)C)cc3)cn2)CC1C.Cl` (stereo not shown) [Example 24, N-[6-(4-Allyl-3,5-dimethylpiperazin-1-yl)pyridin-3-yl]-4-isopropylbenzenesulfonamide hydrochloride] are 25 nM and 47.
In experiment [1], `CCCN1CCN(c2cc(C)c(NS(=O)(=O)c3ccc(C(C)C)cc3)cn2)CC1.Cl` [Example 38, 4-Isopropyl-N-[4-methyl-6-(4-propylpiperazin-1-yl)pyridin-3-yl]-benzenesulfonamide hydrochloride] yielded a Ki of 17.2 nM. Further, the “Selectivity vs. D2L” value in experiment [2] is reported as 22.
The corresponding values for `C=CCN1CCN(c2ccc(NS(=O)(=O)c3ccc(C(C)C)cc3)cn2)CC1C.Cl` (racemic) [Example 13, N-[6-(4-Allyl-3-methylpiperazin-1-yl)pyridin-3-yl]-4-isopropylbenzenesulfonamide hydrochloride] are 3.6 nM and 131.
The corresponding values for `CCN1CCN(c2ccc(NS(=O)(=O)c3ccc(C(C)C)cc3)cn2)CC1.Cl` [Example 11, N-[6-(4-Ethylpiperazin-1-yl)pyridin-3-yl]-4-isopropylbenzenesulfonamide hydrochloride] are 6.2 nM and 77.
The like results for `C=CCN1CCN(c2ccc(NS(=O)(=O)c3ccc(C(C)(C)CC)cc3)c(C)n2)CC1` [Example 45, 4-tert-pentyl-[N-[2-(4-Allylpiperazin-1-yl)-6-methylpyridin-5-yl]-benzenesulfonamide, Fumarate] were, in that order, 1.4 nM and 24.
In experiment [1], `Cc1cc(N2CCNCC2)ncc1NS(=O)(=O)c1ccc(C(C)C)cc1.Cl` [Example 36, 4-Isopropyl-N-(4-methyl-6-piperazin-1-ylpyridin-3-yl)-benzenesulfonamide hydrochloride] showed a Ki of 5.4 nM. In addition, in experiment [2], the “Selectivity vs. D2L” value stood at 50.
The like results for `C=CCN1CCN(c2ccc(NS(=O)(=O)c3ccc(C(C)C)cc3)c(C)n2)CC1` [Example 43] were, in that order, 1.1 nM and 80.
In the case of `C=CCN1CCN(c2ccc(NS(=O)(=O)c3ccc(CCCC)cc3)cn2)CC1` [Example 3, N-[6-(4-Allylpiperazin-1-yl)pyridin-3-yl]-4-butylbenzenesulfonamide], the Ki in experiment [1] amounted to 5.9 nM. Moreover, in experiment [2], the “Selectivity vs. D2L” value stood at 15.
The like results for `CCCN1C(C)CN(c2ncccc2NS(=O)(=O)c2ccc(C(C)C)cc2)CC1C.O=C(O)C(F)(F)F` (stereo not shown) [Example 22, 4-Isopropyl-N-[2-(3,5-dimethyl-4-propylpiperazin-1-yl)pyridin-3-yl]benzenesulfonamide trifluoroacetate] were, in that order, 21.9 nM and 22.
The like results for `C=CCN1CCN(c2ccc(NS(=O)(=O)c3ccc(C(C)C)cc3)cn2)C[C@@H]1CC.Cl` [Example 50, N-[6-((S)-4-Allyl-3-ethyl-piperazin-1-yl)-pyridin-3-yl]-4-isopropylbenzenesulfonamide, hydrochloride] were, in that order, 9.9 nM and 57.
`C=CCN1CCN(c2ncc(NS(=O)(=O)c3ccc(C(C)C)cc3)cn2)CC1` [Example 16, N-[2-(4-Allylpiperazin-1-yl)pyrimidin-5-yl]-4-isopropylbenzenesulfonamide] registered a Ki in experiment [1] of 3.8 nM. Moreover, the “Selectivity vs. D2L” value in experiment [2] is given as 131.
Turning to `CCCN1CCN(c2ccc(NS(=O)(=O)c3ccc(CC)cc3)cn2)C[C@@H]1C.Cl` [Example 46, 4-Ethyl-N-[6-((S)-3-methyl-4-propyl-piperazin-1-yl)-pyridin-3-yl]-benzenesulfonamide, hydrochloride], in experiment [1], the Ki was 7.1 nM. Also, the “Selectivity vs. D2L” value in experiment [2] is recorded as 50.
`C=CCN1CCN(c2ccc(NS(=O)(=O)c3ccc(C(C)C)cc3)c(OC)n2)C[C@@H]1C.Cl` [Example 48, N-[6-((S)-4-Allyl-3-methyl-piperazin-1-yl)-2-methoxy-pyridin-3-yl]-4-isopropylbenzenesulfonamide, hydrochloride] yielded a Ki in experiment [1] of 0.8 nM. For the same molecule, the “Selectivity vs. D2L” value in experiment [2] is reported as 21.
